The record followed here is article PMC5564600 (Oncotarget, 2017).

Assay in all cases: biochemical
Holding throughout (type): binding

Test [1] has as its target T1, panel of 442 kinases (Homo sapiens, UniProt O75116).
T1 construct: purchased Ambit Biosciences (scanMAXX KINOMEscan)
As to conditions: kinase ROCK2; for remaining activity at 1 µM: read-out: ROCK2 (% of control at 1 µM).

The target in test [2] is T2, panel of 442 kinases (Homo sapiens, UniProt P29323).
T2 construct: purchased Ambit Biosciences (scanMAXX KINOMEscan)
T2 sequence (P29323 19-1055): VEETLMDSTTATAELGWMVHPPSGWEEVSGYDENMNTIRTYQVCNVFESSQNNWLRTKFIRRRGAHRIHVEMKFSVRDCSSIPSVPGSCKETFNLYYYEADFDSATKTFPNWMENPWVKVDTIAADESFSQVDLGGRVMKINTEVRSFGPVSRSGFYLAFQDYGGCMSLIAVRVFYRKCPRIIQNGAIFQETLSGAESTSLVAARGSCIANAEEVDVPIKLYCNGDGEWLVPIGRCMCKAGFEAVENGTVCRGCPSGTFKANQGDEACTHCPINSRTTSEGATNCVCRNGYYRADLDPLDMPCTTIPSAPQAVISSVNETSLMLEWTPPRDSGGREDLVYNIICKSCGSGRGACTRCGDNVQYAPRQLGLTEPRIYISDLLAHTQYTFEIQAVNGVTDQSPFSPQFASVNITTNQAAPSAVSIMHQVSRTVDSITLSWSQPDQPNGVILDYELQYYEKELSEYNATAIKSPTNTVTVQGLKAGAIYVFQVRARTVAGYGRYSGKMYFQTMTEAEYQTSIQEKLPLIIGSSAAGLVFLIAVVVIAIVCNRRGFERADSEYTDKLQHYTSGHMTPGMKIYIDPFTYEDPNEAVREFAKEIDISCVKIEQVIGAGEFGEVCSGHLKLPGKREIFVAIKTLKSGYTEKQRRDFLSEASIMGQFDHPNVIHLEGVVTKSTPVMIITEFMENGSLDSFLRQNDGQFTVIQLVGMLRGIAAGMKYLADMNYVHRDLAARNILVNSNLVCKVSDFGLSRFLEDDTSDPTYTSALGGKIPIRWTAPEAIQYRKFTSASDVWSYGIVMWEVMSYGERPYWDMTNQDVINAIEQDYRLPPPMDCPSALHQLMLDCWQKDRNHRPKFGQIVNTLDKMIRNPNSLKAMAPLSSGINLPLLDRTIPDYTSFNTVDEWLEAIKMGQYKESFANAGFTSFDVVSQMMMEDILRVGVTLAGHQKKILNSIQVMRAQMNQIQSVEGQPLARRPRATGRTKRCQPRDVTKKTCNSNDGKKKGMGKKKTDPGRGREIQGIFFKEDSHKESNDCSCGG
As to conditions: EPHB2; for remaining activity at 1 µM: read-out: % of control at 1 µM.

The target in test [3] is T3, panel of 442 kinases (Homo sapiens, UniProt Q13470).
T3 construct: purchased Ambit Biosciences (scanMAXX KINOMEscan)
T3 sequence (Q13470 1-666): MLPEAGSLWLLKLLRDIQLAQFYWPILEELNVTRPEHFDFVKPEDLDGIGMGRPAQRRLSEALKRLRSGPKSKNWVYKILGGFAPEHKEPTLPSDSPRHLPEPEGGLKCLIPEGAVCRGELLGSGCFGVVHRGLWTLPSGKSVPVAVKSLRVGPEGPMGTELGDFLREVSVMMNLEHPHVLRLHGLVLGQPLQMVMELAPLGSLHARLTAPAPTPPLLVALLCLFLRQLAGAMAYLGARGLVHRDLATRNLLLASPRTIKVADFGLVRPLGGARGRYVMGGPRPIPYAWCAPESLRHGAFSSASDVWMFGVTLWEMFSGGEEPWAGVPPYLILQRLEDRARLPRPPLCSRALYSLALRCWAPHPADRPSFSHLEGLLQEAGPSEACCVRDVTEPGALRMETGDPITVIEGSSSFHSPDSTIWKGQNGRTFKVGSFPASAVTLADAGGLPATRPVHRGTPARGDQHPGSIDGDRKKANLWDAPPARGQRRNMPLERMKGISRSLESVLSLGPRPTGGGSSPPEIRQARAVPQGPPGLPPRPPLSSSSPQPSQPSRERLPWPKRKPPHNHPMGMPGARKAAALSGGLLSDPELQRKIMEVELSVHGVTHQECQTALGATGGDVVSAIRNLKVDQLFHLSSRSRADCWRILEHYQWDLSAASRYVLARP
The note with it: kinase TNK1; for remaining activity at 1 µM: read-out: TNK1 (% of control at 1 µM).

In test [4] the target is T4, panel of 442 kinases (Homo sapiens, UniProt Q8NE63).
T4 construct: purchased Ambit Biosciences (scanMAXX KINOMEscan)
T4 sequence (Q8NE63 1-616): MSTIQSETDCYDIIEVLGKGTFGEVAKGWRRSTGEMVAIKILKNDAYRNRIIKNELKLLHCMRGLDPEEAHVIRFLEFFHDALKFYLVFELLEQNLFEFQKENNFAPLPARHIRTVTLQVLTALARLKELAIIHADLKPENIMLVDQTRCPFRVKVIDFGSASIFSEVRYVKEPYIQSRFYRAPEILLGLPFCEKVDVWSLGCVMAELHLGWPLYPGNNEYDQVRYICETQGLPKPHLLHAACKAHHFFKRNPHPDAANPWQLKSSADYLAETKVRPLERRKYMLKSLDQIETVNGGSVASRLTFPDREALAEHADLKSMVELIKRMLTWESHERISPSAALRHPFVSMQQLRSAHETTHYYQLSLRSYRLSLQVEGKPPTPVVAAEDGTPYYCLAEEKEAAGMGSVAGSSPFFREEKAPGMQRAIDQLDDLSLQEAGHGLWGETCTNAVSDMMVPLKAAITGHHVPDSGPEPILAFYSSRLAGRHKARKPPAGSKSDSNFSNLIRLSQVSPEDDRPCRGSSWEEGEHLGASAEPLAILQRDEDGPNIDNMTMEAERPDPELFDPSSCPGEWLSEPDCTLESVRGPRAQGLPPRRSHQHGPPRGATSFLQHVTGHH
The note with it: kinase HIPK4; for remaining activity at 1 µM: read-out: % of control at 1 µM.

[5] abbreviates: 10 µM, read-out: % of control at 10 µM.

T1 sequence (O75116 whole entry): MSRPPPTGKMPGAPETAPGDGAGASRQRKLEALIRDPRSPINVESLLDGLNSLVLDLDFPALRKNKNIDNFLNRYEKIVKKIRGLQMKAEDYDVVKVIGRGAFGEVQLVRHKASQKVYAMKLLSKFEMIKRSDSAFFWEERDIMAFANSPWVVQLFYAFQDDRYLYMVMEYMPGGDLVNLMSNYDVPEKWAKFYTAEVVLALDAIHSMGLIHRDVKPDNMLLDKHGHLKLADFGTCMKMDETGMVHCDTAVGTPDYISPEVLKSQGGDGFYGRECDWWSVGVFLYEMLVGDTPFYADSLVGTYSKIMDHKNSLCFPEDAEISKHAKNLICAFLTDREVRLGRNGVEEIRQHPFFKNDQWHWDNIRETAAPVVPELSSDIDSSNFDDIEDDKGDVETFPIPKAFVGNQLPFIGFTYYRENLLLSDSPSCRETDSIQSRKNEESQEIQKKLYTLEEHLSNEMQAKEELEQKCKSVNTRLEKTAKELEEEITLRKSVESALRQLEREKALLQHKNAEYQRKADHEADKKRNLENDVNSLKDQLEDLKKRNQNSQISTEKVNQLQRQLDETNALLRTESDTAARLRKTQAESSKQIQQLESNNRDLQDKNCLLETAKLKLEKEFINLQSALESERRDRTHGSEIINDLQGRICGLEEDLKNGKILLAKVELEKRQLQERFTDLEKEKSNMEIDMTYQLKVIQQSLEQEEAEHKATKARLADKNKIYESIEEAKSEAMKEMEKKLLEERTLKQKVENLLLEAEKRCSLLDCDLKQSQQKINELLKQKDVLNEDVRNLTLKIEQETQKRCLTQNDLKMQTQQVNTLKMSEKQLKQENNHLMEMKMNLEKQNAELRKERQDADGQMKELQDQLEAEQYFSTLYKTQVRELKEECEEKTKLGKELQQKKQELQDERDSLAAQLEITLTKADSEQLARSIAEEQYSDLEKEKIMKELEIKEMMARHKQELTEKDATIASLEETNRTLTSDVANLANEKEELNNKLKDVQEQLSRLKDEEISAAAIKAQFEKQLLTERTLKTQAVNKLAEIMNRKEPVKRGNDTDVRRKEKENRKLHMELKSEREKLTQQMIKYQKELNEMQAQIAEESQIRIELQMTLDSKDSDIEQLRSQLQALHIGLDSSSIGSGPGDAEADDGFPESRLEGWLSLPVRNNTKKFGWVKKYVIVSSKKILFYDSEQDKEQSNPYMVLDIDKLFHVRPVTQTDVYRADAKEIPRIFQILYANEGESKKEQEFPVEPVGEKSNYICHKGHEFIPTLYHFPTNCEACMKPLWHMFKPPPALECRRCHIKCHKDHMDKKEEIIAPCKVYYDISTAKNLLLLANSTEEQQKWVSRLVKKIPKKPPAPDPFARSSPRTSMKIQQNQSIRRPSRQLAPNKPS

As to `COc1ncc(-c2ccc3nccc(-c4ccnnc4)c3c2)cc1NS(=O)(=O)c1ccc(F)cc1F` [Omipalisib], the remaining activity at 1 µM was 89% on panel of 442 kinases [1], 100% on panel of 442 kinases [2], 100% at panel of 442 kinases [3] and 98% on panel of 442 kinases [4].

As for `Cn1c(=O)n(-c2ccc(C(C)(C)C#N)cc2)c2c3cc(-c4cnc5ccccc5c4)ccc3ncc21` [Dactolisib, 2-methyl-2-[4-(3-methyl-2-oxo-8-quinolin-3-yl-2,3-dihydroimidazo[4,5-c]quinolin-1-yl)-phenyl] propionitrile], the remaining activity at 1 µM came to 60% at panel of 442 kinases [1], 100% at panel of 442 kinases [2], 88% at panel of 442 kinases [3] and 87% on panel of 442 kinases [4].

As for `Nc1cc(C(F)(F)F)c(-c2cc(N3CCOCC3)nc(N3CCOCC3)n2)cn1` [Buparlisib], the remaining activity at 1 µM at panel of 442 kinases [1] came out at 100%; at panel of 442 kinases [2], 82%; at panel of 442 kinases [3], 100%; on panel of 442 kinases [4] it was 97%. In addition, the remaining activity at 10 µM at panel of 442 kinases [1] (10 µM, read-out: ROCK2 (% of control at 10 µM)) was 89%; on panel of 442 kinases [2] (setting [5]), 100%; at panel of 442 kinases [3] (10 µM, read-out: TNK1 (% of control at 10 µM)), 100%; on panel of 442 kinases [4] (setting [5]), 100%.

`FC(F)c1nc2ccccc2n1-c1nc(N2CCOCC2)nc(N2CCOCC2)n1` [ZSTK474, 2-(difluoromethyl)-1-[4,6-di(4-morpholinyl)-1,3,5-triazin-2-yl]-1H-benzimidazole]: the remaining activity at 1 µM is 86% on panel of 442 kinases [1], 94% on panel of 442 kinases [2], 86% at panel of 442 kinases [3] and 77% on panel of 442 kinases [4].
